The text below walks through data of patent US20100113436A1, “DISPIRO TETRAOXANE COMPOUNDS AND THEIR USE IN THE TREATMENT OF MALARIA AND/OR CANCER” (priority 2006, published 2010).

In brackets after ≈: the same amount, converted by molar mass. Read-outs that look alike come from different tables or passages of the source.

Data set [1] concerns Plasmodium falciparum TM4. As to the kind of experiment: In vitro analysis versus strains of Plasmodium falciparum: TM4. It is filed as cell-based.
A further data set concerns Plasmodium falciparum K1. Nature of the data set: In vitro analysis versus strains of Plasmodium falciparum: K1. The format is cell-based. Conditions: K1 strain.
In data set [2] the test system is Plasmodium falciparum DD2. Nature of the data set: In vitro analysis versus strains of Plasmodium falciparum: DD2. The format is cell-based.
Data set [3] deals with Plasmodium falciparum GC03. Nature of the data set: In vitro analysis versus strains of Plasmodium falciparum: GC03. It is filed as cell-based.
In data set [4] the test system is Plasmodium falciparum HB3. Nature of the data set: In vitro analysis versus strains of Plasmodium falciparum: HB3. The format is cell-based.
The test system of data set [5] is Plasmodium falciparum PH3. Nature of the data set: In vitro analysis versus strains of Plasmodium falciparum: PH3. The format is cell-based.
For data set [6], the system named is Plasmodium falciparum V1S. As to the kind of experiment: microbe, parasite or virus in culture. The format is cell-based.
Data set [7] has as its system 3D7 strain of Plasmodium falciparum. As to the kind of experiment: In vitro antimalarial activity, 48-h [3H]-hypoxanthine incorporation assay. The format is cell-based. As to the method:
The 3D7 strain of Plasmodium falciparum was used in this study. This strain is known to be […] Parasites were maintained in continuous culture using the method of Jensen and Trager^4. […] Stock drug solutions were prepared in 100% dimethylsulphoxide (DMSO) and diluted to the appropriate concentration using complete medium. Assays were performed in sterile 96-well microlitre plates, each plate contained 200 μl of parasite culture (2% parasitemia, 0.5% haematocrit) with or without 10 μl drug dilutions. Each drug was tested in triplicate and parasite growth compared to control wells (which constituted 100% parasite growth). […] IC50 values were calculated by interpolation of the probit transformation of the log dose-response curve.

Data set [8] concerns L6 Sketal muscle myoblast. Nature of the data set: Cellular cytotoxicity screen, Resazurin reduction. The format is cell-based, rat. An excerpt:
(§1) Values represent Tox 50 in μM. Cytotoxicity measured by Resazurin reduction.
(§2) Single full dose response curves generated using 10 independent drug concentrations. The 100 therapeutic index (TI) is the ration of the TOX 50 to the IC50 for the specific compound against the 3D7 P. falciparum isolate. The primary hepatocytes have demonstrable drug metabolising activity. The tetraoxane derivatives are remarkably non-toxic in these screens with in vitro TIs of between 5000 to 17000!.

Data set [9] relates to H9c2(2-1) Myocardium, heart. As to the kind of experiment: Cellular cytotoxicity screen, Resazurin reduction. The format is cell-based, rat. As to conditions: H9c(2-1).
Description: as §1, §2
Background: Alamar Blue is a resazurin reagent that responds to reducing activity.

Data set [10] has as its system P. berghei ANKA. As to the kind of experiment: In vivo dose response screening against P. berghei ANKA. As to conditions: P. berghei ANKA infected mice; Table 9; sigmoidal curve calculation.
In data set [11] the test system is P. berghei ANKA. The description is as above. More on the design: species or system mice. As to conditions: Plasmodium berghei; P. berghei ANKA infected mice; Table 9. As to the method: Compound 29c, 29h and 291 were then subjected to dose response experiment against the P. berghei ANKA and the results are summarized in Table 7 below.
Another data set concerns Vero Kidney. As to the kind of experiment: Cellular cytotoxicity screen, Resazurin reduction. The format is cell-based, African green monkey, Cercopithecus aethiops.
Description: as §1, §2

Data set [12] relates to HepG2 Human hepatocyte carcinoma. Nature of the data set: Cellular cytotoxicity screen, Resazurin reduction. It is filed as cell-based. Conditions: Hep2G.
Description: as §1, §2

The test system of data set [13] is Salmonella typhimurium TA1535/pSK1002. Nature of the data set: Salmonella typhimurium SOS/umu genotoxicity assay. The source says:
(§3) This assay is based on the ability of DNA damaging agents to induce the expression of the umu operon. The Salmonella strains have a plasmid pSK1002 which carries an umuC-lacZ fused gene that produces a hybrid protein with β-galactosidase activity and whose expression is controlled by the umu regulatory region.

Data set [14] has as its system Salmonella typhimurium NM2009. As to the kind of experiment: Salmonella typhimurium SOS/umu genotoxicity assay.
Description: as §3

Data set [15] has as its system MRC-5 Embryonal lung, diploid. Nature of the data set: Cellular cytotoxicity screen, Resazurin reduction. The format is cell-based, Human.
Description: as §1, §2

A short description of data set [16]: Timed iron degradation stability, FeBr2 in THF. The format is physicochemical. Conditions: ferrous bromide/THF. The source says:
The resulting residue was purified by flash column chromatography and the % recovery of starting endoperoxide calculated (Table 15).

Data set [17] can be described thus: Stability to other iron salts (FeSO4•7H2O, FeCl2•4H2O). It is filed as physicochemical. As to conditions: further iron salts.
[18] abbreviates: ratio TOX 50 to IC50 against 3D7 P. falciparum.

What is called IC50 is the concentration at which inhibition is half-maximal. As for `CCN(CC)Cc1cc(Nc2ccnc3cc(Cl)ccc23)ccc1O` [AM, Amodiaquine, reference compound], the IC50 in data set [1] (TM4 strain, read-out: IC50) was determined as 6.4 nM; in the data set with Plasmodium falciparum K1 it was 10.2 nM; in [2] (DD2 strain, read-out: IC50) it was 6.1 nM; in data set [3] (GC03 strain, read-out: IC50), 4.5 nM; in [4] (HB3 strain, read-out: IC50), 5.9 nM; in [5] (PH3 strain, read-out: IC50), 4.7 nM. In data set [6], this molecule yielded an IC50 of 7.7 nM.

Regarding `CCN(CC)CCCC(C)Nc1ccnc2cc(Cl)ccc12` (stereo not shown) [Chloroquine, reference compound], the IC50 was 8.5 nM in data set [7] (3D7, read-out: Mean IC50); 91.3 nM in data set [1]; 80.5 nM in data set [2] (DD2); 8.1 nM in data set [3]; 6.6 nM in [4] (HB3); 72 nM in data set [5]. The molecule also registered an IC50 in data set [6] of 83.7 nM.

A word on the ED50: it is the dose at which the effect has come halfway, by size or by number of responders. In general, solubility refers to how much of the substance goes into solution per volume. Regarding `CCS(=O)(=O)N1CCC2(CC1)OOC1(OO2)C2CC3CC(C2)CC1C3` [Tetraoxane 39b], the IC50 was determined as 5.55 nM in data set [7] (3D7, read-out: Mean IC50); 2.4 nM in [1] (TM4 strain, read-out: IC50); 3 nM in the data set on Plasmodium falciparum K1; 3 nM in data set [2] (DD2 strain, read-out: IC50); 3 nM in data set [3] (GC03 strain, read-out: IC50); 3.8 nM in [4] (HB3 strain, read-out: IC50). Besides, the IC50 in [5] (PH3 strain, read-out: IC50) came to 1.9 nM; in [6], 2.7 nM. For the same molecule, the “Tox 50” value in data set [8] is 31 µM; in [9] it was >50 µM; in the data set with Vero Kidney, >50 µM; in [12] it was >50 µM; in data set [15], >50 µM. Also, the “Theraputic Index (TI)” value is 5636 in [8] (setting [18]); >9090 in data set [9] (setting [18]); >9090 in the data set with Vero Kidney (setting [18]); >9090 in data set [12] (setting [18]); >9090 in data set [15] (setting [18]). In addition, in the data set with P. berghei ANKA [10], the ED90 is on record as 35.48 mg/kg. Besides, the ED50 in the data set with P. berghei ANKA [11] was 6.61 mg/kg. The molecule also displayed a solubility in “physchem” of 50 µM (≈ 18.7 µg/mL). Moreover, the “MCE TA1535 (Maximum Co w/o effects on bacteria growth or β-galactosidase production)” value in data set [13] (Salmonella typhimurium) turned out to be 50 µM. Also, the “genotoxicity result in SOS/umu assay” value in data set [13] (both strains TA1535/pSK1002 and NM2009, highest concentration tested 50 μM, absence and presence of S-9 mix) is listed as “Negative”. Besides, the results for the “Max. Fold Increase” value in [13] (−S9) and in [14] (−S9) were 1.03 ± 0.07 fold and 1.07 ± 0.03 fold, respectively. The Potential genotox entry in data set [13] (−S9) and in data set [14] (−S9) was “NEG” each time. Besides, the “MCE NM2009 (Maximum Co w/o effects on bacteria growth or beta-galactosidase production)” value in data set [14] (Salmonella typhimurium) was 50 µM.

As to `O=S(=O)(c1ccccc1)N1CCC2(CC1)OOC1(OO2)C2CC3CC(C2)CC1C3` [Tetraoxane 39f], the IC50 in data set [7] (3D7, sulfonamide dispiro 1,2,4,5-tetraoxanes, Table 8, read-out: Mean IC50) came to 8.1 nM. Also, the degradation in data set [16] (after 4 h) is listed as 10%. The turnover in data set [16] (after 48 h) is on record as 31%. For the same molecule, the “degradation by iron salts known to degrade artemisinin and arteflene” value in data set [17] is on record as “ineffective at degrading”.
